# Assay results as given in ChEMBL document CHEMBL4308841, “Synthesis, in vitro antiproliferative activity, and kinase inhibitory effects of pyrazole-containing diarylureas and diarylamides” (Eur J Med Chem, 2018).
# Legend:
# NCI-H23 [1] = assay: Growth inhibition of human NCI-H23 cells assessed as cell growth at 0.01 uM incubated for 48 hrs by sulforhodamine B assay relative to control; assay type: functional; settings: NCI-H23, 48 h, read-out: Activity
# OVCAR-4 = assay: Growth inhibition of human OVCAR4 cells assessed as cell growth at 1 uM incubated for 48 hrs by sulforhodamine B assay relative to control; assay type: functional; settings: OVCAR-4, 48 h, read-out: Activity
# SR = assay: Growth inhibition of human SR cells assessed as cell growth at 100 uM incubated for 48 hrs by sulforhodamine B assay relative to control; assay type: functional; settings: read-out: Activity
# RPMI-8226 = assay: Growth inhibition of human RPMI8226 cells assessed as cell growth at 100 uM incubated for 48 hrs by sulforhodamine B assay relative to control; assay type: functional; settings: RPMI-8226, 48 h, read-out: Activity
# UACC-62 [2] = assay: Growth inhibition of human UACC62 cells assessed as cell growth at 100 uM incubated for 48 hrs by sulforhodamine B assay relative to control; assay type: functional; settings: UACC-62, 48 h, read-out: Activity
# UACC-62 [3] = assay: Growth inhibition of human UACC62 cells assessed as cell growth at 1 uM incubated for 48 hrs by sulforhodamine B assay relative to control; assay type: functional; settings: UACC-62, 48 h, read-out: Activity
# HCT-116 = assay: Growth inhibition of human HCT116 cells incubated for 48 hrs by sulforhodamine B assay; assay type: functional, cell-based; settings: HCT-116, 48 h
# SF-268 = assay: Growth inhibition of human SF268 cells incubated for 48 hrs by sulforhodamine B assay; assay type: functional, cell-based; settings: SF-268, 48 h
# NCI-H226 [4] = assay: Growth inhibition of human NCI-H226 cells assessed as cell growth at 0.1 uM incubated for 48 hrs by sulforhodamine B assay relative to control; assay type: functional; settings: NCI-H226, 48 h, read-out: Activity
# SK-MEL-28 = assay: Growth inhibition of human SK-MEL-28 cells assessed as cell growth at 0.1 uM incubated for 48 hrs by sulforhodamine B assay relative to control; assay type: functional; settings: SK-MEL-28, 48 h, read-out: Activity
# NCI-H23 [5] = assay: Growth inhibition of human NCI-H23 cells assessed as cell growth at 0.1 uM incubated for 48 hrs by sulforhodamine B assay relative to control; assay type: functional; settings: NCI-H23, 48 h, read-out: Activity
# MDA-MB-468 = assay: Growth inhibition of human MDA-MB-468 cells assessed as cell growth at 0.01 uM incubated for 48 hrs by sulforhodamine B assay relative to control; assay type: functional; settings: MDA-MB-468, 48 h, read-out: Activity
# SNB-75 = assay: Growth inhibition of human SNB75 cells assessed as cell growth at 0.01 uM incubated for 48 hrs by sulforhodamine B assay relative to control; assay type: functional; settings: SNB-75, 48 h, read-out: Activity
# PC-3 = assay: Growth inhibition of human PC3 cells assessed as cell growth at 100 uM incubated for 48 hrs by sulforhodamine B assay relative to control; assay type: functional; settings: PC-3, 48 h, read-out: Activity
# OVCAR-8 = assay: Growth inhibition of human OVCAR8 cells assessed as cell growth at 0.1 uM incubated for 48 hrs by sulforhodamine B assay relative to control; assay type: functional; settings: OVCAR-8, 48 h, read-out: Activity
# SNB-19 = assay: Growth inhibition of human SNB19 cells assessed as cell growth at 1 uM incubated for 48 hrs by sulforhodamine B assay relative to control; assay type: functional; settings: SNB-19, 48 h, read-out: Activity
# CAKI-1 = assay: Growth inhibition of human Caki1 cells incubated for 48 hrs by sulforhodamine B assay; assay type: functional, cell-based; settings: CAKI-1, 48 h
# KM12 [6] = assay: Growth inhibition of human KM12 cells assessed as cell growth at 100 uM incubated for 48 hrs by sulforhodamine B assay relative to control; assay type: functional; settings: KM12, 48 h, read-out: Activity
# KM12 [7] = assay: Growth inhibition of human KM12 cells incubated for 48 hrs by sulforhodamine B assay; assay type: functional, cell-based; settings: KM12, 48 h
# DU-145 = assay: Growth inhibition of human DU145 cells incubated for 48 hrs by sulforhodamine B assay; assay type: functional, cell-based; settings: DU-145, 48 h
# U-251 = assay: Growth inhibition of human U251 cells assessed as cell growth at 0.1 uM incubated for 48 hrs by sulforhodamine B assay relative to control; assay type: functional; settings: U-251, 48 h, read-out: Activity
# SN12C = assay: Growth inhibition of human SN12C cells assessed as cell growth at 1 uM incubated for 48 hrs by sulforhodamine B assay relative to control; assay type: functional; settings: read-out: Activity
# SK-MEL-5 = assay: Growth inhibition of human SK-MEL-5 cells assessed as cell growth at 0.01 uM incubated for 48 hrs by sulforhodamine B assay relative to control; assay type: functional; settings: SK-MEL-5, 48 h, read-out: Activity
# RXF 393 = assay: Growth inhibition of human RXF393 cells assessed as cell growth at 1 uM incubated for 48 hrs by sulforhodamine B assay relative to control; assay type: functional; settings: RXF 393, 48 h, read-out: Activity
# ACHN = assay: Growth inhibition of human ACHN cells incubated for 48 hrs by sulforhodamine B assay; assay type: functional, cell-based
# UACC-62 [8] = assay: Growth inhibition of human UACC62 cells incubated for 48 hrs by sulforhodamine B assay; assay type: functional, cell-based; settings: UACC-62, 48 h
# NCI-H226 [9] = assay: Growth inhibition of human NCI-H226 cells incubated for 48 hrs by sulforhodamine B assay; assay type: functional, cell-based; settings: NCI-H226, 48 h
# A498 = assay: Growth inhibition of human A498 cells assessed as cell growth at 100 uM incubated for 48 hrs by sulforhodamine B assay relative to control; assay type: functional; settings: A498, 48 h, read-out: Activity
# [10] = read-out: LC50 (the source's name)
# [11] = read-out: pLC50 (the source's name) (converted)
compound,measurement,setting,value
O=C(Nc1cccc(-n2cc(-c3ccncc3)c(-c3cc(O)cc(Cl)c3)n2)c1)c1ccc(N2CCOCC2)c(C(F)(F)F)c1,growth at 0.01 µM,NCI-H23 [1],105%
same,growth at 1 µM,OVCAR-4,99%
same,growth at 100 µM,SR,-25%
same,growth at 100 µM,RPMI-8226,-32%
same,growth at 100 µM,UACC-62 [2],-31%
same,growth at 1 µM,UACC-62 [3],58%
same,IC50,HCT-116,1.96 µM
same,GI50,HCT-116; read-out: GI50,1.96 µM
same,CC50,HCT-116; [10],> 100 µM
same,TGI,HCT-116; read-out: TGI,> 100 µM
same,GI50,HCT-116; read-out: pGI50 (converted),1.95 µM
same,CC50,HCT-116; [11],> 100 µM
same,TGI,HCT-116; read-out: pTGI (converted),> 100 µM
same,GI50,SF-268; read-out: GI50,5.51 µM
same,CC50,SF-268; [10],> 100 µM
same,TGI,SF-268; read-out: TGI,> 100 µM
same,GI50,SF-268; read-out: pGI50 (converted),8.51 µM
same,CC50,SF-268; [11],> 100 µM
same,TGI,SF-268; read-out: pTGI (converted),> 100 µM
same,growth at 0.1 µM,NCI-H226 [4],93%
same,growth at 0.1 µM,SK-MEL-28,94%
same,growth at 0.1 µM,NCI-H23 [5],104%
same,growth at 0.01 µM,MDA-MB-468,92%
same,growth at 0.01 µM,SNB-75,57%
same,growth at 100 µM,PC-3,-8%
same,growth at 0.1 µM,OVCAR-8,101%
same,growth at 1 µM,SNB-19,90%
same,GI50,CAKI-1; read-out: GI50,1.1 µM
same,CC50,CAKI-1; [10],> 100 µM
same,TGI,CAKI-1; read-out: TGI,60 µM
same,GI50,CAKI-1; read-out: pGI50 (converted),1.1 µM
same,CC50,CAKI-1; [11],> 100 µM
same,TGI,CAKI-1; read-out: pTGI (converted),6.03 µM
same,growth at 100 µM,KM12 [6],4%
same,GI50,KM12 [7]; read-out: GI50,1.21 µM
same,CC50,KM12 [7]; [10],> 100 µM
same,TGI,KM12 [7]; read-out: TGI,> 100 µM
same,GI50,KM12 [7]; read-out: pGI50 (converted),1.2 µM
same,CC50,KM12 [7]; [11],> 100 µM
same,TGI,KM12 [7]; read-out: pTGI (converted),> 100 µM
same,GI50,DU-145; read-out: GI50,5.55 µM
same,CC50,DU-145; [10],> 100 µM
same,TGI,DU-145; read-out: TGI,> 100 µM
same,GI50,DU-145; read-out: pGI50 (converted),5.62 µM
same,CC50,DU-145; [11],> 100 µM
same,TGI,DU-145; read-out: pTGI (converted),> 100 µM
same,growth at 0.1 µM,U-251,96%
same,growth at 1 µM,SN12C,58%
same,growth at 0.01 µM,SK-MEL-5,98%
same,growth at 1 µM,RXF 393,13%
same,GI50,ACHN; read-out: GI50,1.54 µM
same,CC50,ACHN; [10],> 100 µM
same,TGI,ACHN; read-out: TGI,29.3 µM
same,GI50,ACHN; read-out: pGI50 (converted),1.82 µM
same,CC50,ACHN; [11],> 100 µM
same,TGI,ACHN; read-out: pTGI (converted),29.5 µM
same,IC50,UACC-62 [8],1.72 µM
same,GI50,UACC-62 [8]; read-out: GI50,1.72 µM
same,CC50,UACC-62 [8]; [10],> 100 µM
same,TGI,UACC-62 [8]; read-out: TGI,93.8 µM
same,GI50,UACC-62 [8]; read-out: pGI50 (converted),1.74 µM
same,CC50,UACC-62 [8]; [11],> 100 µM
same,TGI,UACC-62 [8]; read-out: pTGI (converted),9.33 µM
same,GI50,NCI-H226 [9]; read-out: GI50,2.56 µM
same,LC50,NCI-H226 [9]; read-out: LC50,> 100 µM
same,TGI,NCI-H226 [9]; read-out: TGI,> 100 µM
same,GI50,NCI-H226 [9]; read-out: pGI50 (converted),28.8 µM
same,LC50,NCI-H226 [9]; read-out: pLC50 (converted),> 100 µM
same,TGI,NCI-H226 [9]; read-out: pTGI (converted),> 100 µM
same,growth at 100 µM,A498,-12%
